Measured values from the NIST ThermoML archive (doi:10.1016/j.jct.2011.12.013).
± gives the expanded uncertainty stated by the source.

Assay: xn = mol fraction of the nth substance listed
Details: Liquid, Custom Made Vibrating Tube Densimeter

C=C1CC[C@H]2C[C@@H]1C2(C)C [(1S,5S)-6,6-dimethyl-2-methylenebicyclo[3.1.1]heptane] + C=C(C)[C@H]1CC=C(C)CC1
mass density [kg/m3]
Details | x2 = 0 | x2 = 0.11 | x2 = 0.2008 | x2 = 0.289 | x2 = 0.3961 | x2 = 0.4938 | x2 = 0.5906 | x2 = 0.6984 | x2 = 0.7993 | x2 = 0.9022
328.15 K, 20000 kPa | 858.2 ± 1 | 855.3 ± 1 | 852.6 ± 1 | 850.1 ± 1 | 846.9 ± 1 | 844.3 ± 1 | 841.5 ± 1.1 | 838.9 ± 1.1 | 835.9 ± 1.1 | 833.1 ± 1.1
328.15 K, 25000 kPa | 861.7 ± 1 | 858.7 ± 1 | 856 ± 1 | 853.5 ± 1 | 850.4 ± 1 | 847.7 ± 1 | 844.9 ± 1.1 | 842.1 ± 1.1 | 839.4 ± 1.1 | 836.4 ± 1.1
328.15 K, 30000 kPa | 865.2 ± 1 | 862.1 ± 1 | 859.5 ± 1 | 857 ± 1 | 853.9 ± 1 | 851.2 ± 1 | 848.5 ± 1.1 | 845.4 ± 1.1 | 842.7 ± 1.1 | 839.7 ± 1.1
328.15 K, 35000 kPa | 868.7 ± 1 | 865.5 ± 1 | 862.7 ± 1 | 860.3 ± 1 | 857.2 ± 1 | 854.6 ± 1 | 851.9 ± 1.1 | 848.7 ± 1.1 | 846.1 ± 1.1 | 843.1 ± 1.1
328.15 K, 40000 kPa | 872.2 ± 1 | 868.8 ± 1 | 866.1 ± 1 | 863.7 ± 1 | 860.7 ± 1 | 857.8 ± 1 | 855.3 ± 1.1 | 852 ± 1.1 | 849.4 ± 1.1 | 846.8 ± 1.1
343.15 K, 20000 kPa | 847.7 ± 1 | 844.7 ± 1 | 842.1 ± 1 | 839.6 ± 1 | 836.7 ± 1 | 834 ± 1 | 831.4 ± 1.1 | 828.4 ± 1.1 | 825.7 ± 1.1 | 822.7 ± 1.1
343.15 K, 25000 kPa | 851.4 ± 1 | 848.4 ± 1 | 845.8 ± 1 | 843.5 ± 1 | 840.3 ± 1 | 837.6 ± 1 | 834.9 ± 1.1 | 832 ± 1.1 | 829.1 ± 1.1 | 826.3 ± 1.1
343.15 K, 30000 kPa | 855 ± 1 | 852 ± 1 | 849.4 ± 1 | 846.9 ± 1 | 843.9 ± 1 | 841.2 ± 1 | 838.6 ± 1.1 | 835.6 ± 1.1 | 832.9 ± 1.1 | 830 ± 1.1
343.15 K, 35000 kPa | 858.6 ± 1 | 855.5 ± 1 | 853.1 ± 1 | 850.6 ± 1 | 847.4 ± 1 | 844.8 ± 1 | 842.3 ± 1.1 | 839.1 ± 1.1 | 836.7 ± 1.1 | 833.6 ± 1.1
343.15 K, 40000 kPa | 862.1 ± 1 | 859 ± 1 | 856.7 ± 1 | 854 ± 1 | 850.8 ± 1 | 848.3 ± 1 | 845.6 ± 1.1 | 842.4 ± 1.1 | 840.1 ± 1.1 | 837.1 ± 1.1
358.15 K, 20000 kPa | 837 ± 1 | 834 ± 1 | 831.4 ± 1 | 829.2 ± 1 | 826.3 ± 1 | 823.7 ± 1 | 821 ± 1.1 | 818.2 ± 1.1 | 815.6 ± 1.1 | 812.5 ± 1.1
358.15 K, 25000 kPa | 840.9 ± 1 | 838 ± 1 | 835.4 ± 1 | 833 ± 1 | 830.1 ± 1 | 827.4 ± 1 | 824.9 ± 1.1 | 822 ± 1.1 | 819.4 ± 1.1 | 816.7 ± 1.1
358.15 K, 30000 kPa | 844.8 ± 1 | 841.9 ± 1 | 839.2 ± 1 | 836.8 ± 1 | 833.8 ± 1 | 831.2 ± 1 | 828.6 ± 1.1 | 825.7 ± 1.1 | 823 ± 1.1 | 820 ± 1.1
358.15 K, 35000 kPa | 848.7 ± 1 | 845.7 ± 1 | 843 ± 1 | 840.6 ± 1 | 837.5 ± 1 | 834.9 ± 1 | 832.4 ± 1.1 | 829.4 ± 1.1 | 826.8 ± 1.1 | 823.9 ± 1.1
358.15 K, 40000 kPa | 852.6 ± 1 | 849.6 ± 1 | 846.8 ± 1 | 844.6 ± 1 | 841.4 ± 1 | 838.7 ± 1 | 836.2 ± 1.1 | 833.1 ± 1.1 | 830.3 ± 1.1 | 827.3 ± 1.1
